Test results: patent publication US10041104B2, “Microfluidic device” (Astrego Diagnostics AB, priority 2014, dated 2018)
≈ marks a conversion by molar mass, not a printed value.

Key:
[1] = test system: chloramphenicol-susceptible E. coli strain; assay: minimum inhibitory concentration (MIC); type: cell-based; settings: Escherichia coli
[2] = test system: chloramphenicol-resistant E. coli strain; assay: minimum inhibitory concentration (MIC); type: cell-based; settings: Escherichia coli
[3] = test system: chloramphenicol-susceptible and chloramphenicol-resistant E. coli strains; assay: AST test in microfluidic device, phase contrast images (FIG. 15); type: cell-based, Escherichia coli; settings: both strains exposed to 6 μg/ml chloramphenicol; images taken 15 min apart
Text: The microfluidic device of the embodiments can be used for various applications. An example of such application is antibiotic susceptibility testing (AST). For example, the microfluidic device 1 shown in FIG. 10 can be used for this purpose. In such a case, the sample strain can be loaded from, for instance, the common second fluid port 33A using the first fluid ports 31A′, 31B′, 31C′ as output ports for excess cells and culture medium and the common third fluid port 51 as output port for culture medium and for sucking cells into the cell channels. In an example, during loading culture medium is flown from the common second fluid port 33C to the common second fluid port 33B to prevent contaminating the common second fluid port 33C. After cell loading culture medium preferably flows from the common second fluid port 33C using the first fluid ports 31A′, 31B′, 31C′ and the common third fluid port 51 as output ports. At this stage growth of the cells in the cell channels can be monitored for some time, 0 min to days, while imaging the cells in the different cell channels. […] Susceptibility is monitored by the phenotypic response to antibiotic in the different cell channels. […] Some phenotypic changes are best studied by addition of test agents, such as 4′,6-diamidino-2-phenylindole (DAPI) and SYTOX® fluorescent stains, that can be monitored in a florescence channel. […]

[4] = test system: ciprofloxacin resistant E. coli strain DA20859; assay: minimum inhibitory concentration (MIC); type: cell-based; settings: Escherichia coli
[5] = test system: ciprofloxacin resistant E. coli strain DA20859; assay: AST in microfluidic device, average growth rate response by phase contrast time lapse imaging (FIG. 18); type: cell-based, Escherichia coli
Text: The microfluidic device of the embodiments can be used for various applications. An example of such application is antibiotic susceptibility testing (AST). For example, the microfluidic device 1 shown in FIG. 10 can be used for this purpose. In such a case, the sample strain can be loaded from, for instance, the common second fluid port 33A using the first fluid ports 31A′, 31B′, 31C′ as output ports for excess cells and culture medium and the common third fluid port 51 as output port for culture medium and for sucking cells into the cell channels. In an example, during loading culture medium is flown from the common second fluid port 33C to the common second fluid port 33B to prevent contaminating the common second fluid port 33C. After cell loading culture medium preferably flows from the common second fluid port 33C using the first fluid ports 31A′, 31B′, 31C′ and the common third fluid port 51 as output ports. At this stage growth of the cells in the cell channels can be monitored for some time, 0 min to days, while imaging the cells in the different cell channels. The AST test starts by flowing different antibiotics or a same antibiotic but at different concentrations into the different sets 2A, 2B, 2C of cell channels using the first fluid ports 31A, 31B, 31C as input ports, while using the common second fluid ports 33A, 33B, 33C and the common third fluid port 51 as output ports. Susceptibility is monitored by the phenotypic response to antibiotic in the different cell channels. For example, it is possible to determine the average growth rate and the cell to cell distribution of growth rates just by monitoring the length extension in phase contrast using automatics images analysis routines. These measurements can be averaged over cells in many cell channels such that it is possible to determine minute phenotypic changes within a few minutes. Phenotypic changes can also be in morphological changes, such as the compaction of DNA or changes in membrane structure or in integrity. Some phenotypic changes are best studied by addition of test agents, such as 4′,6-diamidino-2-phenylindole (DAPI) and SYTOX® fluorescent stains, that can be monitored in a florescence channel.
The E. coli strain was exposed to (1) no drug marked with “x”, (2) erythromycin at 120 μg/ml marked with diamonds or (3) ciprofloxacin 10 μg/ml marked with circles. The time point 0 min corresponds to the start of the treatment. The curve corresponding to treatment with the drug (erythromycin) for which the strain is susceptible can be distinguished from the no treatment curve in <10 min. The curve corresponding to treatment with the drug for which the strain is susceptible can be distinguished from the curve corresponding to the drug (ciprofloxacin) for which the strain is resistant in <15 min.

[6] = test system: erythromycin-resistant E. coli strain; assay: minimum inhibitory concentration (MIC); type: cell-based; settings: Escherichia coli
[7] = test system: erythromycin-susceptible (non-resistant) E. coli strains; assay: minimum inhibitory concentration (MIC); type: cell-based; settings: Escherichia coli; two non-resistant E. coli strains (circles and diamonds in FIG. 17)
[8] = test system: erythromycin-resistant and erythromycin-susceptible E. coli strains; assay: AST in microfluidic device, average growth rate response (FIG. 17); type: cell-based, Escherichia coli; settings: 120 μg/ml erythromycin at time 0 min
Text: The microfluidic device of the embodiments can be used for various applications. An example of such application is antibiotic susceptibility testing (AST). For example, the microfluidic device 1 shown in FIG. 10 can be used for this purpose. In such a case, the sample strain can be loaded from, for instance, the common second fluid port 33A using the first fluid ports 31A′, 31B′, 31C′ as output ports for excess cells and culture medium and the common third fluid port 51 as output port for culture medium and for sucking cells into the cell channels. In an example, during loading culture medium is flown from the common second fluid port 33C to the common second fluid port 33B to prevent contaminating the common second fluid port 33C. After cell loading culture medium preferably flows from the common second fluid port 33C using the first fluid ports 31A′, 31B′, 31C′ and the common third fluid port 51 as output ports. At this stage growth of the cells in the cell channels can be monitored for some time, 0 min to days, while imaging the cells in the different cell channels. […] Susceptibility is monitored by the phenotypic response to antibiotic in the different cell channels. […] Some phenotypic changes are best studied by addition of test agents, such as 4′,6-diamidino-2-phenylindole (DAPI) and SYTOX® fluorescent stains, that can be monitored in a florescence channel.

MIC [1]	MIC [2]	Compound	growth of susceptible strain compared with resistant strain [3]	MIC [4]	susceptibility of the strain to the drug [5]	MIC [6]	MIC [7]	time in which resistant strain can be distinguished from susceptible strains (average growth rate) [8]	time in which treatment curve can be distinguished from no treatment curve (average growth rate) ([5]; erythromycin 120 μg/ml)	time in which curve of drug for which strain is susceptible can be distinguished from curve of drug for which strain is resistant ([5]; erythromycin 120 μg/ml versus ciprofloxacin 10 μg/ml)
~4 µg/mL (≈ 12.4 µM)	> 12 µg/mL	O=C(N[C@H](CO)[C@H](O)c1ccc([N+](=O)[O-])cc1)C(Cl)Cl [chloramphenicol]	grown much less than the chloramphenicol-resistant strain	–	–	–	–	–	–	–
–	–	O=C(O)c1cn(C2CC2)c2cc(N3CCNCC3)c(F)cc2c1=O [ciprofloxacin]	–	~30 µg/mL (≈ 90.5 µM)	resistant	–	–	–	–	–
–	–	CC[C@H]1OC(=O)[C@H](C)[C@@H](O[C@H]2C[C@@](C)(OC)[C@@H](O)[C@H](C)O2)[C@H](C)[C@@H](O[C@@H]2O[C@H](C)C[C@H](N(C)C)[C@H]2O)[C@](C)(O)C[C@@H](C)C(=O)[C@H](C)[C@@H](O)[C@]1(C)O [erythromycin]	–	–	susceptible	256 µg/mL (≈ 349 µM)	~12 µg/mL (≈ 16.4 µM)	less than 20 min	< 10 min	< 15 min
